From US11802259B2, “Process of reducing malodors on fabrics” (The Procter & Gamble Company, priority 2019, dated 2023)

Test: Malodor Reduction Test Method (wash of body soil malodor test fabrics, SPME GC-MS of oxidation markers)
Conditions: antioxidant at 0.035 wt % in detergent
Method: The following method is used to test the malodor reduction benefits of a composition.
Fatty acids and malodor markers are added into 100 ml glass gar with Teflon-lined cap according to Table A and mixed well using a vortex.
Provided the specified amount of each material according to Table B into a 200 mL glass jar with Teflon lined cap. Artificial body soil (ABS) is commercially available by Accurate Product Development; 2028 Bohlke Blvd, Fairfield, Ohio 45014.
Sixteen malodor test fabrics per wash load are prepared by applying 300 μl of Body soil malodor composition described in Table B to de-sized 2×5 inch white polycotton 50/50 (PCW50/50) swatches. 48 grams of liquid detergent to be tested (see, e.g., Example 1, Table 1, below) is added to Duet 9200 washing appliance set to Normal cycle; 77° F. wash cycle followed by a 60° F. rinse cycle. […]
The malodor reduction using ABS/Squalene malodor sensors are quantitatively determined by Gas Chromatography Mass Spectroscopy using an Agilent gas chromatograph 7890B equipped with a mass selective detector (5977B), a Chemstation quantitation package and a Gerstel multi-purpose sampler equipped with a solid phase micro-extraction (SPME) probe. […] Based on the partition coefficients (K at 80 C) of each component, the total nMol/L liter of 6-Methyl-5-hepten-2-one (K=3353), Trans-2-heptenal (K=3434), and 3-methyl-2-Butenal (K=1119) are calculated. […]

## Cc1c(C)c2c(c(C)c1O)CCC(C)(C(=O)O)O2 (stereo not shown) [Antioxidant 7, 3,4-dihydro-6-hydroxy-2,5,7,8-tetramethyl-2H-1-Benzopyran-2-carboxylic acid]
  malodor reduction benefits (reduction in total oxidation markers): did not provide benefits
